Experiment [1] addresses T1, PARK7 (Homo sapiens, UniProt Q99497).
T1 sequence (Q99497 1-189): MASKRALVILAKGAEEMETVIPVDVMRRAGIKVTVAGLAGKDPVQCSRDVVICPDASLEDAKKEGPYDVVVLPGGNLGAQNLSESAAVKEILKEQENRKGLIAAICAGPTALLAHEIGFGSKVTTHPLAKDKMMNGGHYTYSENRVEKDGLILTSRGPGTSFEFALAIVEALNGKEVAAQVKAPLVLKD
As to the kind of experiment: FP assay with Rhodamine110 probe JYQ-107 (IC50 and hit validation). It counts as binding. On the set-up: GST (N, cleaved yes); made in house; host or cells: E. coli BL21(DE3) Rosetta2. The conditions noted are these: for inhibition at 12.5 µM: read-out: FP assay %Inhibiton (12.5 µM); for inhibition at 37.5 µM: read-out: FP assay %Inhibiton (37.5 µM); for inhibition at 100 µM: read-out: FP assay %Inhibiton (100 µM). How it is done:
The assay was performed using the conditions as described above with a reaction volume of 20 μL per well in triplicate. Stock solutions of JYQ-88 of 1 and 0.1 mM were prepared. […] The FP signal was monitored with a BMG Labtech PHERAstar plate reader (λex/em 480/520 nm) for 2 h.
The validation was performed using the conditions as described above with a reaction volume of 20 μL per well in triplicate. […] The FP signal was monitored with a BMG Labtech PHERAstar plate reader (λex/em 480/520 nm) for 2 h. The relative loss of FP signal compared with reference controls was used to calculate the remaining enzyme activity. Inhibition percentage of these 40 compounds was plotted as a heatmap using GraphPad Prism 9.0.1 software. Color gradients indicate inhibition percentage, no inhibiton (white) and full inhibition (blue).

Experiment [2] has as its target T1, PARK7. As to the kind of experiment: DiFMUAc PARK7 activity assay. It counts as biochemical. Details: GST (N, cleaved yes); made in house; host or cells: E. coli BL21(DE3) Rosetta2. The note with it: for inhibition at 12.5 µM: read-out: DiFMuAc assay %Inhibiton (12.5 µM); for inhibition at 37.5 µM: read-out: DiFMuAc assay %Inhibiton (37.5 µM); for inhibition at 100 µM: read-out: DiFMuAc assay %Inhibiton (100 µM). How it is done: Compounds were transferred using a Labcyte Echo550 acoustic dispenser to obtain a 12-point serial dilution of 0.001 to 100 μM. Next, PARK7 (15 μL, final concentration of 0.1 μM) was dispensed with a Biotek MultiFlowFX liquid dispenser and incubated for 1 h, followed by dispensing the substrate DiFMUAc (5 μL, final concentration of 300 μM). The fluorescence intensity (FI) signal was monitored with a BMG Labtech PHERAstar plate reader (λex/em 350/450 nm) for 1 h.
The validation was performed in the PBS buffer with a reaction volume of 20 μL per well in triplicate. […] Next, PARK7 (15 μL, final concentration 0.1 μM) was dispensed with a Biotek MultiFlowFX liquid dispenser and incubated for 2 h, followed by dispensing the substrate DiFMUAc (5 μL, final concentration 300 μM). The FI signal was monitored with a BMG Labtech PHERAstar plate reader (λex/em 350/450 nm) for 1 h. The increase of FI signal compared with reference controls was used to calculate the remaining enzyme activity. The inhibition percentage of these 22 compounds was plotted as a heatmap using GraphPad Prism 9.0.1 software. Color gradients indicate inhibition percentage, no inhibiton (white) and full inhibition (blue).

Setting [3] is: 12.5 µM compound, PARK7 0.2 μM, 1 h preincubation, JYQ-107 20 nM.
Setting [4] is: 37.5 µM compound, PARK7 0.2 μM, 1 h preincubation, JYQ-107 20 nM.
Setting [5] is: 100 µM compound, PARK7 0.2 μM, 1 h preincubation, JYQ-107 20 nM.

Turning to `COc1ccc(NS(=O)(=O)c2ccc(S(=O)(=O)F)cc2)cn1` [Z1672273218], on PARK7 [1], the inhibition at 12.5 µM came to 79.5%, the inhibition at 37.5 µM was found to be 83.8% and the inhibition at 100 µM worked out at 100%.
Turning to `Cn1c(=O)ccn(CC(=O)Nc2cccc(S(=O)(=O)F)c2)c1=O` [Z1713568698], on PARK7 [1], the inhibition at 12.5 µM worked out at 80.3%, the inhibition at 37.5 µM turned out to be 78.2% and the inhibition at 100 µM turned out to be 100%.
For `O=C(CSC(F)(F)F)Nc1cccc(S(=O)(=O)F)c1` [Z1713569375], the “FP assay %Inhibiton (12.5 µM)” value at PARK7 [1] (setting [3]) came out at 98.9%. Also, the “FP assay %Inhibiton (37.5 µM)” value at PARK7 [1] (setting [4]) was determined as 100.0%. At PARK7 [1] (setting [5]), the “FP assay %Inhibiton (100 µM)” value amounted to 100.0%. For the same molecule, the “DiFMuAc assay %Inhibiton (12.5 µM)” value on PARK7 [2] (12.5 µM compound, PARK7 0.1 μM, 2 h preincubation, DiFMUAc 300 μM) was 81.4%. Moreover, on PARK7 [2] (37.5 µM compound, PARK7 0.1 μM, 2 h preincubation, DiFMUAc 300 μM), the “DiFMuAc assay %Inhibiton (37.5 µM)” value stood at 49.1%. For the same molecule, at PARK7 [2] (100 µM compound, PARK7 0.1 μM, 2 h preincubation, DiFMUAc 300 μM), the “DiFMuAc assay %Inhibiton (100 µM)” value amounted to 97.1%.
In the case of `O=C(Nc1cccc(S(=O)(=O)F)c1)C1CCCC1` [Z1713569513], the “FP assay %Inhibiton (12.5 µM)” value at PARK7 [1] (setting [3]) was determined as 67.6%. Also, the “FP assay %Inhibiton (37.5 µM)” value on PARK7 [1] (setting [4]) is 76.9%. The “FP assay %Inhibiton (100 µM)” value at PARK7 [1] (setting [5]) was 100.0%.
Turning to `COC(=O)Nc1ccc(S(=O)(=O)F)cc1[N+](=O)[O-]` [Z1741956298], on PARK7 [1] (setting [3]), the “FP assay %Inhibiton (12.5 µM)” value was found to be 72.6%. Further, the “FP assay %Inhibiton (37.5 µM)” value on PARK7 [1] (setting [4]) worked out at 75.8%. Also, the “FP assay %Inhibiton (100 µM)” value on PARK7 [1] (setting [5]) is 100.0%.
For the molecule `CC(C)CC(=O)NNS(=O)(=O)c1cccc(S(=O)(=O)F)c1` [Z1764309349], on PARK7 [1], the inhibition at 12.5 µM was found to be 100%, the inhibition at 37.5 µM turned out to be 100% and the inhibition at 100 µM stood at 100%. Also, on PARK7 [2], the inhibition at 12.5 µM was found to be 94%, the inhibition at 37.5 µM worked out at 94.6% and the inhibition at 100 µM came out at 94.4%.
On to `O=S(=O)(F)c1cccc(S(=O)(=O)Nc2cccnc2O)c1` [Z1764375816], for which, at PARK7 [1], the inhibition at 12.5 µM came to 100%, the inhibition at 37.5 µM was 100% and the inhibition at 100 µM was 100%. Further, at PARK7 [2], the inhibition at 12.5 µM is 97.1%, the inhibition at 37.5 µM was found to be 99.2% and the inhibition at 100 µM is 100%.
With `O=C(NNS(=O)(=O)c1cccc(S(=O)(=O)F)c1)C1CCC1` [Z1764398070], on PARK7 [1], the inhibition at 12.5 µM amounted to 100%, the inhibition at 37.5 µM stood at 100% and the inhibition at 100 µM amounted to 100%. Besides, at PARK7 [2], the inhibition at 12.5 µM was determined as 95.7%, the inhibition at 37.5 µM was determined as 98% and the inhibition at 100 µM came to 96.8%.
Consider `O=C1CCC(CC(=O)Nc2cccc(S(=O)(=O)F)c2)CC1` [Z1832812448], for which, on PARK7 [1], the inhibition at 12.5 µM stood at 0%, the inhibition at 37.5 µM was found to be 0% and the inhibition at 100 µM was found to be 0%.
Consider `O=C(CCl)c1ccccn1` [Z1954803958], for which the inhibition at 12.5 µM at PARK7 [1] (setting [3]) stood at 0%. In addition, the inhibition at 37.5 µM on PARK7 [1] (setting [4]) was 0%. On PARK7 [1] (setting [5]), the inhibition at 100 µM came to 23.5%.
Regarding `O=C(CCl)c1cscn1` [Z2491497305], the inhibition at 12.5 µM on PARK7 [1] (setting [3]) came to 4.5%. For the same molecule, the inhibition at 37.5 µM on PARK7 [1] (setting [4]) came to 7.6%. In addition, the inhibition at 100 µM on PARK7 [1] (setting [5]) came to 51.6%.
For `O=C(CCl)c1ccc(F)c(Cl)c1` [Z2492395560], the inhibition at 12.5 µM on PARK7 [1] (setting [3]) was determined as 20.7%. The inhibition at 37.5 µM on PARK7 [1] (setting [4]) amounted to 37.4%. Besides, at PARK7 [1] (setting [5]), the inhibition at 100 µM was 88.1%.
For `O=C(NCCCS(=O)(=O)F)c1cccs1` [Z3267389796], on PARK7 [1] (setting [3]), the “FP assay %Inhibiton (12.5 µM)” value was 83.1%. Further, the “FP assay %Inhibiton (37.5 µM)” value on PARK7 [1] (setting [4]) is on record as 80.1%. The “FP assay %Inhibiton (100 µM)” value at PARK7 [1] (setting [5]) is 100.0%.
As for `O=[N+]([O-])c1ccc(C(F)(F)F)c(S(=O)(=O)F)c1` [Z3396482545], at PARK7 [1] (setting [3]), the “FP assay %Inhibiton (12.5 µM)” value is given as 36.7%. Further, the “FP assay %Inhibiton (37.5 µM)” value at PARK7 [1] (setting [4]) was 36.2%. The “FP assay %Inhibiton (100 µM)” value at PARK7 [1] (setting [5]) stood at 92.4%.

For the origin of these results see article PMC9574860, “Chemical Toolkit for PARK7: Potent, Selective, and High-Throughput” (Journal of Medicinal Chemistry, 2022).
